Data taken from article PMC10126150 (2023).

What was measured:
[1] = tested on: atp-7 ADS construct (DNA, aptamer) CACCTGGGGGAGTATTGCGGAGGAAGGTTTCTGTCTCTTATACACATCTGACGCTGCCGACGA/TCGTCGGCAGCGTCAGATGTGTATAAGAGACAGTTTTTTTTTTTTTTTTTTTTTTTTTCCGGGGGCTATC; assay: Cy3/quencher fluorescence plate reader, two-site fit; conditions: 120 mM Na+, 5 mM K+, 1 mM Mg2+, 1 mM Ca2+; 20 mM Tris-HCl, 0.01% Tween-20, 25 °C; apparent; lower end of range 12–157, atp-7 stated highest affinity
[2] = tested on: NNGmin_scr with glu-3 (DNA, other, boronic acid-modified U (Z) at 1,4,15,18,19,22,26,29 of strand 1) TGGTGCGCGCAGGCTCCTTAATGCATAATTTTCTGTCTCTTATACACATCTGACGCTGCCGACG/TCGTCGGCAGCGTCAGATGTGTATAAGAGACAGTTTTTTTTTTTTTTTTTTTTTTTTTTACCAGGAGCTC; assay: Cy3/quencher fluorescence plate reader; conditions: 120 mM Na+, 5 mM K+, 1 mM Mg2+, 1 mM Ca2+; 20 mM Tris-HCl, 25 °C; 20% signal change against 45-50% for glu1-4
[3] = tested on: NNGmin_scr with glu-4 (DNA, other, boronic acid-modified U (Z) at 1,4,15,18,19,22,26,29 of strand 1) TGGTGCGCGCAGGCTCCTTAATGCATAATTTTCTGTCTCTTATACACATCTGACGCTGCCGACG/TCGTCGGCAGCGTCAGATGTGTATAAGAGACAGTTTTTTTTTTTTTTTTTTTTTTTTTACCAGGAGCTTC; assay: Cy3/quencher fluorescence plate reader; conditions: 120 mM Na+, 5 mM K+, 1 mM Mg2+, 1 mM Ca2+; 20 mM Tris-HCl, 25 °C; 20% signal change against 45-50% for glu1-4
[4] = tested on: NNGmin_scr with glu-1 (DNA, other, boronic acid-modified U (Z) at 1,4,15,18,19,22,26,29 of strand 1) TGGTGCGCGCAGGCTCCTTAATGCATAATTTTCTGTCTCTTATACACATCTGACGCTGCCGACG/TCGTCGGCAGCGTCAGATGTGTATAAGAGACAGTTTTTTTTTTTTTTTTTTTTTTTTTTAGGGCAGGCTC; assay: Cy3/quencher fluorescence plate reader; conditions: 120 mM Na+, 5 mM K+, 1 mM Mg2+, 1 mM Ca2+; 20 mM Tris-HCl, 25 °C; 20% signal change against 45-50% for glu1-4
[5] = tested on: NNGmin_scr with glu-2 (DNA, other, boronic acid-modified U (Z) at 1,4,15,18,19,22,26,29 of strand 1) TGGTGCGCGCAGGCTCCTTAATGCATAATTTTCTGTCTCTTATACACATCTGACGCTGCCGACG/TCGTCGGCAGCGTCAGATGTGTATAAGAGACAGTTTTTTTTTTTTTTTTTTTTTTTTTCAGGACAGGCTC; assay: Cy3/quencher fluorescence plate reader; conditions: 120 mM Na+, 5 mM K+, 1 mM Mg2+, 1 mM Ca2+; 20 mM Tris-HCl, 25 °C; 20% signal change against 45-50% for glu1-4
[6] = tested on: glu-4 ADS construct (DNA, aptamer, boronic acid-modified U (Z, T in the source) at 5,7,8,12,15,19,24,26 of strand 1 (MS of Bio-NNGmin: seven of eight coupled)) CCCGTGTTAGATAGTAAGTGCAATCTCGGCTTTCTGTCTCTTATACACATCTGACGCTGCCGACGA/TCGTCGGCAGCGTCAGATGTGTATAAGAGACAGTTTTTTTTTTTTTTTTTTTTTTTTTACCAGGAGCTTC; assay: Cy3/quencher fluorescence plate reader, single-site fit; conditions: 120 mM Na+, 5 mM K+, 1 mM Mg2+, 1 mM Ca2+; 20 mM Tris-HCl, 0.01% Tween-20, 25 °C; apparent; order of ~0.3 for all four constructs
[7] = tested on: glu-1 ADS construct (DNA, aptamer, boronic acid-modified U (Z, T in the source) at 5,7,8,12,15,19,24,26 of strand 1 (MS of Bio-NNGmin: seven of eight coupled)) CCCGTGTTAGATAGTAAGTGCAATCTCGGCTTTCTGTCTCTTATACACATCTGACGCTGCCGACGA/TCGTCGGCAGCGTCAGATGTGTATAAGAGACAGTTTTTTTTTTTTTTTTTTTTTTTTTTAGGGCAGGCTC; assay: as above; conditions: 120 mM Na+, 5 mM K+, 1 mM Mg2+, 1 mM Ca2+; 20 mM Tris-HCl, 0.01% Tween-20, 25 °C; apparent; order of ~0.3 for all four constructs
[8] = tested on: glu-3 ADS construct (DNA, aptamer, boronic acid-modified U (Z, T in the source) at 5,7,8,12,15,19,24,26 of strand 1 (MS of Bio-NNGmin: seven of eight coupled)) CCCGTGTTAGATAGTAAGTGCAATCTCGGCTTTCTGTCTCTTATACACATCTGACGCTGCCGACGA/TCGTCGGCAGCGTCAGATGTGTATAAGAGACAGTTTTTTTTTTTTTTTTTTTTTTTTTTACCAGGAGCTC; assay: as above; conditions: 120 mM Na+, 5 mM K+, 1 mM Mg2+, 1 mM Ca2+; 20 mM Tris-HCl, 0.01% Tween-20, 25 °C; apparent; order of ~0.3 for all four constructs
[9] = tested on: glu-2 ADS construct (DNA, aptamer, boronic acid-modified U (Z, T in the source) at 5,7,8,12,15,19,24,26 of strand 1 (MS of Bio-NNGmin: seven of eight coupled)) CCCGTGTTAGATAGTAAGTGCAATCTCGGCTTTCTGTCTCTTATACACATCTGACGCTGCCGACGA/TCGTCGGCAGCGTCAGATGTGTATAAGAGACAGTTTTTTTTTTTTTTTTTTTTTTTTTCAGGACAGGCTC; assay: as above; conditions: 120 mM Na+, 5 mM K+, 1 mM Mg2+, 1 mM Ca2+; 20 mM Tris-HCl, 0.01% Tween-20, 25 °C; apparent; order of ~0.3 for all four constructs

| KD [1] [µM] | binding [2] | binding [3] | binding [4] | binding [5] | KDeff [6] | KDeff [7] | KDeff [8] | KDeff [9] | SMILES |
| --- | --- | --- | --- | --- | --- | --- | --- | --- | --- |
| 12 |  |  |  |  |  |  |  |  | Nc1ncnc2c1ncn2[C@@H]1O[C@H](COP(=O)(O)OP(=O)(O)OP(=O)(O)O)[C@@H](O)[C@H]1O |
|  | weak | weak | weak | weak | ~ 0.3 mM | ~ 0.3 mM | ~ 0.3 mM | ~ 0.3 mM | OC[C@H]1OC(O)[C@H](O)[C@@H](O)[C@@H]1O (stereo partly drawn) |
